{"source": "patent US20240342242A1", "about": "“COMPOSITIONS AND METHODS FOR TREATING MASTITIS” (Zoetis Services LLC, priority 2021, published 2024)", "key": {"[1]": {"system": "bovine peripheral blood mononuclear cells (PBMCs)", "assay": "Cytokine production in bovine PBMCs after TLR 4 agonist stimulation", "type": "cell-based", "details": "LPS or MPLA stimulation", "excerpt": "Chicken CATH2 is a host defense peptide that is naturally expressed in chicken heterophils and several tissues. […] LPS and MPLA serve as potent Toll-like Receptor 4 (TLR 4) agonists in this assay and induce high levels of proinflammatory cytokines such as interleukin 6 (IL-6) and tumor necrosis factor alpha (TNFα)."}, "Escherichia coli": {"system": "Escherichia coli", "assay": "Lactating cow E. coli mastitis challenge model, Example 1", "type": "in vivo, Holstein Crossbred Cattle", "description": "A frozen stock of E. coli was used to prepare a suspension of approximately 500 colony forming units/10 mL using standard site procedures. Standard plate counts were conducted on the challenge suspension immediately after preparation and after all animals were challenged. Details of the challenge inoculum preparation including concentration (CFU/10 mL) for the pre- and post-challenge preparation were documented and confirmed to be in range. Locally sourced healthy adult female Holstein Crossbred Cattle in the first, second, or third lactation were enrolled into the studies. Animals challenged with E. coli were susceptible to E. coli as determined by vaccination records and low serum titer to E. coli. Animals enrolled were confirmed to be between 14 and 35 days post-calving at enrollment. […] Following challenge quarters bacteriologically positive for E. coli were regarded as infected. Clinical mastitis was defined as a challenged quarter having a clinical score of at least 1 for either milk appearance or udder evaluation and an isolation of E. coli from the challenged quarter. Subclinical mastitis was defined as isolation of E. coli from the challenged quarter and elevated SSC in the absence of abnormal milk or udder score. This isolate elicits a moderate case of E. coli mastitis with body temperature increase in the first 24 hours post challenge and consistent local signs on udder appearance and milk quality.\nIn this study, animals were treated with 50 mg/10 mL at 12-hour intervals starting 12 hours prior to E. coli challenge. A total of 4 doses were administered by intramammary infusion. Dose administration concluded 24 hours after challenge. The objective of the study was to evaluate the potential for CATH2 to reduce the severity of clinical mastitis by modulation of the host immune response. The dose regimen was designed to ensure sufficient exposure in the absence of understanding the duration of the immunological effect driven by the peptide in cattle.\nThe experimental design was a randomized design with a one-way treatment structure replicated in 3 batches. […] Milk samples were collected for transcriptomic analysis and cytokine profiles in the whey at 12 hours post-challenge. Differential quantitative milk leukocyte counts were collected for 7 days post challenge.\nOne hundred fifty bovine milk samples were obtained in 3 separate cohorts and processed to whey. The whey samples were analyzed for total protein levels and the levels of 8 total cytokines using the developed MSD whey U-Plex method."}, "S. aureus": {"system": "S. aureus", "assay": "S. aureus challenge study, treatment at onset of clinical mastitis, Example 3", "type": "in vivo, Holstein or Holstein Crossbred cattle", "details": "6 doses at 50 mg/10 mL intramammary", "description": "Bovine mastitis specific bacterial pathogens were used to experimentally infect periparturient cows and first lactation heifer Holstein or Holstein Crossbred cattle to test the efficacy of the CATH2 peptide in the treatment and prevention of clinical mastitis.\nA frozen stock of S. aureus was used to prepare a suspension of approximately 600 colony forming units in 5 mL. Standard plate counts were conducted on the challenge suspension immediately after preparation and after all animals were challenged. Details of each challenge inoculum preparation including concentration (CFU/5 mL) for pre- and post-challenge preparation were documented and confirmed to be in range.\nQuarters that were bacteriologically positive for S. aureus were regarded as infected. Clinical mastitis was defined as a challenged quarter having a clinical score of at least 1 for either milk appearance or udder evaluation with an isolation of S. aureus (≥100 cfu/mL) from the quarter within 2 days of clinical signs. Sub-clinical chronic mastitis was defined as isolation of S. aureus (≥100 cfu/mL) from a challenged quarter and elevated SCC (>200,000 cells/mL) in the absence of abnormal milk or udder score.\nAll treatments were administered in accordance with the randomization provided by the biometrician into the challenged quarter (left front) of the udder. Treatments were administered upon onset of clinical mastitis. In this model, onset is approximately 1 to 3 days post-challenge. Upon confirmation of clinical mastitis, treatments were administered at the next milking. Treatments were administered with a 10 mL syringe via intramammary infusion and recorded.\nEach animal with clinical mastitis received a total of 6 doses at 50 mg/10 mL by intramammary infusion administered twice daily for 3 consecutive days."}, "E. coli challenge strain": {"system": "E. coli challenge strain", "assay": "Antibacterial activity of 2 mg peptide in varying milk concentrations, 2-minute pre-incubation", "type": "cell-based", "description": "In a follow up assay to better understand the impact of milk protein binding on antibacterial activity that may be seen in vivo, a ratio of peptide to milk protein was estimated. In this assay varying concentrations of milk in bacterial growth medium was incubated with 2 mg of peptide. Two minutes after adding peptide to the tube, 500 colony forming units (CFU)/mL of the E. coli challenge strain was added. The timing was purposeful for understanding how quickly the peptide can be completely bound. The low inoculum was also chosen intentionally to more closely replicate the dose provided in the in vivo challenge model, thereby providing a worst-case scenario on exposure to free peptide. […] The quantity of milk protein was enough to bind 2 mg of CATH2 peptide. The bacterial growth was evaluated at 1, 2, 4, 6, and 24 hours post inoculation. […] The lower level of detection was 10 CFU/mL and the upper level of quantification measured for the purposes of this assay was set to 1.5×10^5 CFU/mL."}, "[2]": {"assay": "Dry off therapy: transcriptomics of udder secretions in healthy dry cows, Example 5", "type": "in vivo, Holstein cattle", "details": "400 mg/10 mL, 1-day post administration", "description": "In an additional study, pregnant multiparous Holstein cattle were treated with a single dose of CATH2 at approximately 60 days prior to expected calving dates for this group of animals by intramammary infusion following milking. These animals were considered to be entering the so-called dry period in which animals are no longer milked until post-partition. The objective of this study was to understand the immunomodulatory activity of varying doses of CATH2 administered by intramammary infusion in healthy multiparous cows at dry off.\nUdder secretion samples were collected 1, 2, and 7 days post administration. Samples were also collected from the neighboring Right Rear quarter as an untreated in animal control of varying immunological responses. The samples were processed for transcriptomics analysis to determine the healthy animal response to treatment alone."}, "[3]": {"assay": "Transcriptomics after treatment alone in the lactating cow model", "type": "in vivo", "details": "100 mg/10 mL, 12 hour post administration, lactating cows", "excerpt": "Prior to challenge in the lactating cow model, there is a consistent treatment effect of CATH2 alone indicating a modulation of the animal immune response. In the lactating cow model, these shifts lead to an enhanced response in clearance of the E. coli and resolution of inflammation as compared to untreated controls."}}, "note": "Several values for one entry are separate records, joined by “and”; a condition that tells them apart may be missing. Equal entries are not always repeated. Entries after “also recorded” stand apart in the source; their conditions may differ."}
{"sequence": "RFGRFLRKIRRFRPKVTITIQ [CATH2, truncated 1-21 amino acid L-form of chicken cathelicidin 2 peptide]", "values": [{"measurement": "proinflammatory cytokines (IL-6, TNFα) in PBMCs", "setting": "[1]", "result": "effectively inhibits these proinflammatory cytokines"}, {"measurement": "animals showing signs of clinical mastitis", "setting": "Escherichia coli; 50 mg/10 mL intramammary, 4 doses at -12, 0, 12, 24 h, saline 95.65%", "result": 8.70, "unit": "%"}, {"measurement": "animals never positive for intramammary infection", "setting": "Escherichia coli; 50 mg/10 mL intramammary, 4 doses, 20 of 23 animals", "result": "86.96% and 87.0%"}, {"measurement": "animals that never met criteria for clinical mastitis", "setting": "Escherichia coli; 50 mg/10 mL intramammary, 4 doses, 21 out of 23 animals", "result": 91.3, "unit": "%"}, {"measurement": "animals qualifying for subclinical mastitis", "setting": "Escherichia coli; 14-day study, saline 20 of 23", "result": "None"}, {"measurement": "somatic cell count (SCC)", "setting": "Escherichia coli; 6 hours post challenge, FIG. 6", "result": "notable increase in the SCC"}, {"measurement": "milk whey cytokines (IL-1B, IL-6, IL-8/CXCL8, IL-10, TNFα)", "setting": "Escherichia coli; 12 hr post-challenge, vs saline", "result": "significantly lower levels of key inflammatory cytokines; also recorded: reduction in peak cytokine responses"}, {"measurement": "milk yield", "setting": "Escherichia coli; AfiLab in-line system, each milking, FIG. 7", "result": "maintained high milk yields"}, {"measurement": "BSA levels in the milk vs Saline control", "setting": "Escherichia coli; all time points after Day 0 at 6 hours post-challenge, FIG. 8", "result": "statistically significantly reduced BSA levels"}, {"measurement": "time of SCC return to baseline", "setting": "Escherichia coli; bovine, in vivo", "result": "≤ 24", "unit": "hours post challenge"}, {"measurement": "bacterial load in the milk", "setting": "Escherichia coli; first 6 days, FIG. 4", "result": "significant inhibition of E. coli ability to establish infection"}, {"measurement": "BSA return to baseline levels", "setting": "Escherichia coli; milk from challenged quarter", "result": "≤ 3", "unit": "Study Day"}, {"measurement": "animals not showing an increase in body temperature", "setting": "Escherichia coli; rectal temperature, 22 of 23 animals", "result": 95.7, "unit": "%"}, {"measurement": "animals showing a positive response to treatment", "setting": "S. aureus", "result": 55.6, "unit": "%"}, {"measurement": "severity of disease", "setting": "S. aureus", "result": "reduction in bacterial counts and reduced somatic cell counts"}, {"measurement": "animals achieving clinical cure", "setting": "S. aureus; twice daily for 3 days", "result": 33.3, "unit": "%"}, {"measurement": "antibacterial activity in 10% and 20% milk", "setting": "E. coli challenge strain", "result": "some inhibition of bacterial growth"}, {"measurement": "antibacterial activity in 30% whole milk", "setting": "E. coli challenge strain; 2-minute incubation, 500 CFU/mL E. coli", "result": "completely block the antibacterial activity"}, {"measurement": "antibacterial activity in bacterial medium alone", "setting": "E. coli challenge strain; E. coli below level of detection (10 CFU/mL) at 1, 2, 4, 6, 24 h", "result": "completely bactericidal"}, {"measurement": "gene expression in udder secretions", "setting": "[2]", "result": "increased expression of: CCL24, CXCL2, IL1RAP, CXCR1, and CXCR2"}, {"measurement": "gene expression in milk", "setting": "[3]", "result": "increased expression of: CCL24, CXCL2, IL1RAP, CXCR1, and CXCR2"}]}
